{"source": "paper PMC9646673", "about": "“A Novel, Orally Bioavailable, Small-Molecule Inhibitor of PCSK9 With Significant Cholesterol-Lowering Properties In Vivo” (Journal of Lipid Research, 2022)", "key": {"[1]": {"tested_on": "APOE∗3-Leiden.CETP mice", "experiment": "First efficacy study: body weight, food intake, plasma AST and ALT", "assay_type": "in vivo, mouse", "conditions": "for Plasma ALT / Plasma AST: group-pooled", "source_text": "(§1) Animal experiments were approved by the governmental central committee on animal experiments (AVD5010020172064) and TNO’s animal welfare body (TNO-471 and TNO-482). Female APOE∗3-Leiden.CETP transgenic mice (11–16 weeks of age) were bred at the animal facility of TNO-InnoSer (Leiden, The Netherlands). Female animals were used in this study as they are more responsive to dietary cholesterol and fat than males and therefore typically develop atherosclerosis more rapidly than male APOE∗3-Leiden and APOE∗3-Leiden.CETP mice on cholesterol-containing diets ([33], [34]). Although measurements of atherosclerosis were not included as part of the present study, females were used with the prospect in mind that atherosclerosis studies will follow. The mice were housed under standard conditions that included 12 h light-dark cycles and access to a WTD and sterilized tap water ad libitum. Body weight, food intake, and clinical signs of behavior were monitored throughout the studies. […] Time t = 0 (weeks) was designated as the time at which mice were matched into groups after the 3-week run-in period in each efficacy study.\nTreatment times were around 8:00 am and 4:00 pm each day. Throughout the in-life phase of the study, body weight and food intake (per cage) were measured at regular predetermined intervals while blood samples were collected every 7 days. The last gavage was administered on day 27. On day 28, the mice were sacrificed by CO2 asphyxiation, EDTA-plasma was obtained via heart puncture, and the liver was weighed and collected. Throughout the study, plasma cholesterol, triglycerides, HDL-C, lipoprotein profiles, PCSK9 expression levels, aspartate transaminase levels (AST), and alanine transaminase levels (ALT) were measured as described below.\n(§2) In both studies, blood samples were collected at weekly intervals via tail vein sampling after fasting the mice for 4 h. Blood samples were centrifugated (4500 g at 4°C), and the plasma was collected for the following analyses. Total plasma cholesterol levels were determined using a Cholesterol CHOD-PAP kit according to the manufacturer’s instructions. Plasma HDL-C levels were determined by first precipitating apoB-containing lipids using PEG 6000/glycine and then utilizing the Cholesterol CHOD-PAP kit ([35]). Non-HDL-C levels were determined by subtracting HDL-C levels from total cholesterol levels ([32]). Group-pooled lipoprotein profiles were determined by FPLC analysis using an AKTApurifier 10 FPLC system (GE Healthcare, Chicago, IL). Plasma PCSK9 levels were determined using a Mouse PCSK9 Quantikine ELISA kit as per the manufacturer’s protocol. ALT and AST levels of group-pooled samples were measured using the Roche Reflotron Plus System (Mannheim, Germany)."}, "[2]": {"tested_on": "plasma PCSK9 protein levels", "experiment": "Second efficacy study: plasma total PCSK9 (ELISA)", "assay_type": "in vivo, mouse", "conditions": "50 mg/kg BID PO, from day 7, sustained for the remaining 4 weeks", "source_text": "Animal experiments were approved by the governmental central committee on animal experiments (AVD5010020172064) and TNO’s animal welfare body (TNO-471 and TNO-482). Female APOE∗3-Leiden.CETP transgenic mice (11–16 weeks of age) were bred at the animal facility of TNO-InnoSer (Leiden, The Netherlands). Female animals were used in this study as they are more responsive to dietary cholesterol and fat than males and therefore typically develop atherosclerosis more rapidly than male APOE∗3-Leiden and APOE∗3-Leiden.CETP mice on cholesterol-containing diets ([33], [34]). […] Body weight, food intake, and clinical signs of behavior were monitored throughout the studies. […]\nas §2, with “Blood samples were centrifugated (4500 g at 4°C), and the plasma was collected for the following analyses.” left out, “Plasma PCSK9 levels were determined using a Mouse PCSK9 Quantikine ELISA kit as per the manufacturer’s protocol. ALT and AST levels of group-pooled samples were measured using the Roche Reflotron Plus System (Mannheim, Germany).” left out"}, "[3]": {"tested_on": "hepatic LDLR protein", "experiment": "Second efficacy study: hepatic LDLR protein (Western blotting)", "assay_type": "in vivo, mouse", "conditions": "day 35; NYX-PCSK9i 50 mg/kg BID PO, atorvastatin […]"}, "[4]": {"tested_on": "APOE∗3-Leiden.CETP mice", "experiment": "Second efficacy study: body weight, food intake, plasma ALT and AST", "assay_type": "in vivo, mouse", "design": "Body weight (mean ± SD) / Food intake (mean ± SD): unit not given here", "conditions": "NYX-PCSK9i 50 mg/kg BID PO, atorvastatin […]; for Plasma ALT / Plasma AST: group-pooled", "source_text": "as §1, §2"}, "[5]": {"tested_on": "APOE∗3-Leiden.CETP mice", "experiment": "Fecal bile acid and neutral sterol content, cholesterol balance", "description": "In a subsequent efficacy study, mice were treated identically to the first study with the following modifications. Mice in group 1 received vehicle solution (5% DMSO, 5% Solutol HS15, and 90% saline) twice daily by oral gavage. […] The study ran for a total of 35 days with blood and tissue collection and analysis performed as described below.\nAnalyses of fecal neutral sterol and bile acid contents were performed by gas chromatographic analysis as previously detailed ([37], [38]). Per treatment group, two cages of four mice per cage were used, with feces collected twice per cage during the last week of the study. The net cholesterol uptake, or cholesterol balance, was defined as the dietary cholesterol intake (food intake measured weekly) minus the summed fecal output of neutral sterols and bile acids."}, "[6]": {"conditions": "30 mg/kg BID PO, day 0 (baseline)"}, "[7]": {"conditions": "50 mg/kg BID PO, day 0 (baseline)"}}, "data": [{"compound": "Cc1cn(-c2cc(CN3CCC[C@H](N)C3)cc(NC(=O)c3cc(-c4ccccc4)ccn3)c2)cn1", "note": "[NYX-PCSK9i]", "values": [{"measurement": "plasma levels of the liver enzymes AST and ALT compared to vehicle", "setting": "[1]; 30 and 50 mg/kg BID PO, 28 days", "result": "remained stable"}, {"measurement": "Plasma ALT", "setting": "[1]; [6]", "result": 76.8, "unit": "U/L"}, {"measurement": "Plasma AST", "setting": "[1]; [6]", "result": 185.2, "unit": "U/L"}, {"measurement": "Plasma ALT", "setting": "[1]; 30 mg/kg BID PO, day 7", "result": 69.6, "unit": "U/L"}, {"measurement": "Plasma AST", "setting": "[1]; 30 mg/kg BID PO, day 7", "result": 175.2, "unit": "U/L"}, {"measurement": "Plasma ALT", "setting": "[1]; 30 mg/kg BID PO, day 14", "result": 70.0, "unit": "U/L"}, {"measurement": "Plasma AST", "setting": "[1]; 30 mg/kg BID PO, day 14", "result": 158.8, "unit": "U/L"}, {"measurement": "Plasma ALT", "setting": "[1]; 30 mg/kg BID PO, day 21", "result": 55.6, "unit": "U/L"}, {"measurement": "Plasma AST", "setting": "[1]; 30 mg/kg BID PO, day 21", "result": 156.8, "unit": "U/L"}, {"measurement": "Plasma ALT", "setting": "[1]; 30 mg/kg BID PO, day 28", "result": 35.6, "unit": "U/L"}, {"measurement": "Plasma AST", "setting": "[1]; 30 mg/kg BID PO, day 28", "result": 84, "unit": "U/L"}, {"measurement": "Plasma ALT", "setting": "[1]; [7]", "result": 70.0, "unit": "U/L"}, {"measurement": "Plasma AST", "setting": "[1]; [7]", "result": 170.8, "unit": "U/L"}, {"measurement": "Plasma ALT", "setting": "[1]; 50 mg/kg BID PO, day 7", "result": 74.8, "unit": "U/L"}, {"measurement": "Plasma AST", "setting": "[1]; 50 mg/kg BID PO, day 7", "result": 181.2, "unit": "U/L"}, {"measurement": "Plasma ALT", "setting": "[1]; 50 mg/kg BID PO, day 14", "result": 56, "unit": "U/L"}, {"measurement": "Plasma AST", "setting": "[1]; 50 mg/kg BID PO, day 14", "result": 147.6, "unit": "U/L"}, {"measurement": "Plasma ALT", "setting": "[1]; 50 mg/kg BID PO, day 21", "result": 47.6, "unit": "U/L"}, {"measurement": "Plasma AST", "setting": "[1]; 50 mg/kg BID PO, day 21", "result": 120.4, "unit": "U/L"}, {"measurement": "Plasma ALT", "setting": "[1]; 50 mg/kg BID PO, day 28", "result": 38, "unit": "U/L"}, {"measurement": "Plasma AST", "setting": "[1]; 50 mg/kg BID PO, day 28", "result": 107, "unit": "U/L"}, {"measurement": "elevation of total plasma PCSK9 levels", "setting": "[2]", "result": "approximately 2 fold"}, {"measurement": "increase in hepatic LDLR protein expression", "setting": "[3]", "result": 45, "unit": "%"}, {"measurement": "Body weight (mean ± SD)", "setting": "[4]; day 0 (baseline)", "result": "21.9 ± 1.7"}, {"measurement": "Food intake (mean ± SD)", "setting": "[4]; day 0 (baseline)", "result": "3.4 ± 0.3"}, {"measurement": "Food intake (mean ± SD)", "setting": "[4]; day 7", "result": "3.5 ± 0.3"}, {"measurement": "Body weight (mean ± SD)", "setting": "[4]; day 14", "result": "23.0 ± 2.4"}, {"measurement": "Food intake (mean ± SD)", "setting": "[4]; day 14", "result": "3.4 ± 0.0"}, {"measurement": "Body weight (mean ± SD)", "setting": "[4]; day 21", "result": "22.4 ± 2.0"}, {"measurement": "Food intake (mean ± SD)", "setting": "[4]; day 21", "result": "2.7 ± 0.0"}, {"measurement": "Body weight (mean ± SD)", "setting": "[4]; day 28", "result": "21.9 ± 2.1"}, {"measurement": "Food intake (mean ± SD)", "setting": "[4]; day 28", "result": "2.7 ± 0.1"}, {"measurement": "Food intake (mean ± SD)", "setting": "[4]; day 35", "result": "2.7 ± 0.3"}, {"measurement": "Plasma ALT", "setting": "[4]; day 0 (baseline)", "result": 91, "unit": "U/L"}, {"measurement": "Plasma AST", "setting": "[4]; day 0 (baseline)", "result": 91, "unit": "U/L"}, {"measurement": "Plasma ALT", "setting": "[4]; day 14", "result": 84, "unit": "U/L"}, {"measurement": "Plasma AST", "setting": "[4]; day 14", "result": 84, "unit": "U/L"}, {"measurement": "Plasma ALT", "setting": "[4]; day 28", "result": 36, "unit": "U/L"}, {"measurement": "Plasma AST", "setting": "[4]; day 28", "result": 36, "unit": "U/L"}, {"measurement": "Plasma ALT", "setting": "[4]; day 35", "result": 42, "unit": "U/L"}, {"measurement": "Plasma AST", "setting": "[4]; day 35", "result": 42, "unit": "U/L"}, {"measurement": "share of fecal neutral sterols that was cholesterol", "setting": "[5]; data not shown", "result": "more than 95%"}, {"measurement": "cholesterol balance (dietary cholesterol intake minus fecal bile acids and neutral sterols)", "setting": "[5]; final week of 35-day study", "result": "negative"}]}]}
